Measured values taken from patent US4273775A, “Hydantoin derivatives, anti-diabetic compositions thereof, and method of use thereof” (Pfizer Inc., priority 1980, dated 1981).

Legend:
[1] = system: sorbitol accumulation in the sciatic nerve of streptozotocinized rats; assay: inhibition of sorbitol accumulation in the sciatic nerve of streptozotocinized (diabetic) rats; format: in vivo; settings: measured 27 hours after induction of diabetes, vs untreated
Description: The activity of the compounds of the present invention, as agents for the control of chronic diabetic complications, is determined by their ability to successfully pass one or more of the following standard biological and/or pharmacological tests, viz., (1) measuring their ability to inhibit the enzyme activity of isolated aldose reductase; (2) measuring their ability to reduce or inhibit sorbitol accumulation in the sciatic nerve of acutely streptozotocinized (i.e., diabetic) rats; (3) measuring their ability to reverse already-elevated sorbitol levels in the sciatic nerve and lens of chronic streptozotocin-induced diabetic rats; (4) measuring their ability to prevent or inhibit galactitol formation in the lens of acutely galactosemic rats, and (5) measuring their ability to delay cataract formation and reduce the severity of lens opacities in chronic galactosemic rats. The following tetrahydroquinoline-derived spiro-hydantoin compounds of Examples 1 and 3-4, respectively, were tested for their ability to reduce or inhibit sorbitol accumulation in the sciatic nerve of streptozotocinized (i.e., diabetic) rats by the procedure essentially described in U.S. Pat. No. 3,821,383. In the present study, the amount of sorbitol accumulation in the sciatic nerves was measured 27 hours after induction of diabetes. The compounds were administered orally at the dose levels indicated at 4, 8 and 24 hours following the administration of streptozotocin. The results obtained in this manner are presented below in terms of percent inhibition (%) afforded by the test compound as compared to the case where no compound was administered (i.e., the untreated animal where sorbitol levels normally rise from approximately […]. tissue to as high as 400 mM/g. tissue in the 27-hour test period): […]

[2] = system: sorbitol levels in diabetic rats; assay: control (inhibition) of the formation of sorbitol levels in diabetic rats, oral; format: in vivo; settings: 5.0 mg./kg. to 25 mg./kg.
From the text: As previously indicated, the tetrahydroquinoline-derived spiro-hydantoin compounds of this invention are all readily adapted to therapeutic use as aldose reductase inhibitors for the control of chronic diabetic complications, in view of their ability to reduce lens sorbitol levels in diabetic subjects to a statistically significant degree. […] The other compounds of this invention also cause similar results. Furthermore, all the herein described compounds of this invention can be administered by either the oral or parenteral routes of administration, for the present purposes at hand, without causing any significant untoward pharmacological side reactions to occur in the subject to whom they are so administered. In general, these compounds are ordinarily administered in dosages ranging from about 0.25 mg. to about 25 mg. per kg. of body weight per day, although variations will necessarily occur depending upon the weight and condition of the subject being treated and the particular route of administration chosen.

[3] = 5.0 mg./kg. orally at 4, 8 and 24 hours after streptozotocin

Compound	Percent Inhibition (%) of sorbitol accumulation in sciatic nerve [1, 3]	Percent Inhibition (%) of sorbitol accumulation in sciatic nerve ([1]; 10 mg./kg. orally at 4, 8 and 24 hours after streptozotocin)	control (i.e., inhibit) the formation of sorbitol levels in diabetic rats [2]
CN1CCC2(NC(=O)NC2=O)c2ccccc21.Cl (stereo not shown) [Product of Example 1, 1'-methyl-1',2',3',4'-tetrahydro-spiro-[imidazolidine-4,4'-quinoline]-2,5-dione hydrochloride]	19%		
O=C1NC(=O)C2(CCNc3cc(Cl)ccc32)N1 (stereo not shown) [Product of Example 3, 7'-chloro-1',2',3',4'-tetrahydro-spiro-[imidazolidine-4,4'-quinoline]-2,5-dione]	23%		
O=C1NC(=O)C2(CCNc3ccc(Cl)cc32)N1 (stereo not shown) [Product of Example 4, 6'-chloro-1',2',3',4'-tetrahydro-spiro-[imidazolidine-4,4'-quinoline]-2,5-dione]		80%	consistently control (i.e., inhibit) the formation of sorbitol levels in diabetic rats to a significantly high degree
